# Measurements published in patent US9517238B2, “Compositions and methods for treating allergic inflammation through inhibition of NTRK1” (CHILDREN'S HOSPITAL MEDICAL CENTER, priority 2014, dated 2016).
# Legend:
# [1] = tested on: NTRK1 expression in esophageal biopsies; test: RT-PCR analysis of NTRK1 in esophageal biopsies of EoE patients after swallowed steroid treatment; type: in vivo, human; conditions: EoE patients who responded to swallowed steroid treatment (FPR, n=13) vs active EoE and controls; FIG. 4A
# Procedure: FIG. 4. NTRK1, NGF, and EGR1 expression in human allergic inflammation. In A, RT-PCR analysis of NTRK1 in biopsies was performed in unaffected control patients (Ctrl, n=13), patients with active EoE (EoE, n=12), and EoE patients who responded to swallowed steroid treatment (fluticasone responders [FPR], n=13); ***p<0.001; ns, not significant. In B and C, the graphs show Pearson correlation of NTRK1 expression with IL-13 levels and peak eosinophil counts in EoE biopsies. […] In E, quantification of NTRK1 in control and active EoE biopsies is shown (n=5 each); *p<0.05. Expression level was normalized to the level of GAPDH. In F, RT-PCR analysis of NGF and CCL26 was performed in control and EoE biopsies (n=10 each); ****p<0.0001; ns, not significant. In G, amount of NGF and CCL26 protein was measured by ELISA in control and active EoE biopsies (n=5 each); *p<0.05; ns, not significant. […] In I, EGR1 mRNA was measured by RT-PCR in esophageal biopsies of unaffected control (Ctrl) patients and patients with active EoE (n=10 each). ***p<0.001. […]
# In vitro experiments with epithelial cells prompted us to investigate whether NTRK1 is increased in epithelial cells in vivo during allergic responses. First, we assessed expression of NTRK1 mRNA in esophageal biopsies of control and EoE patients. […]
# NTRK1 = biological target: T1, NTRK1 (Homo sapiens, UniProt P04629); test: NGF-mediated induction of EGR genes in TE-7 cells stably expressing NTRK1, with tyrosine kinase inhibitors; type: cell-based; conditions: TE-7 epithelial cells, NGF stimulation
# T1 construct: expressed in transfected cells
# Text: In order to further investigate the functional link between IL-13 and NGF signaling we generated two pools of TE-7 cells stably expressing NTRK1 that allowed us to simultaneously induce IL-13 and NGF/NTRK1 responses.
# We further hypothesized that inhibition of NTRK1 kinase activity will prevent induction of EGR genes following NGF stimulation. To test this hypothesis we utilized two tyrosine kinase inhibitors lestaurtinib (CEP-701) and crizotinib that were previously reported as efficient blockers of NTRK1 auto-phosphorylation and downstream signaling.
# T1 sequence (P04629 33-796): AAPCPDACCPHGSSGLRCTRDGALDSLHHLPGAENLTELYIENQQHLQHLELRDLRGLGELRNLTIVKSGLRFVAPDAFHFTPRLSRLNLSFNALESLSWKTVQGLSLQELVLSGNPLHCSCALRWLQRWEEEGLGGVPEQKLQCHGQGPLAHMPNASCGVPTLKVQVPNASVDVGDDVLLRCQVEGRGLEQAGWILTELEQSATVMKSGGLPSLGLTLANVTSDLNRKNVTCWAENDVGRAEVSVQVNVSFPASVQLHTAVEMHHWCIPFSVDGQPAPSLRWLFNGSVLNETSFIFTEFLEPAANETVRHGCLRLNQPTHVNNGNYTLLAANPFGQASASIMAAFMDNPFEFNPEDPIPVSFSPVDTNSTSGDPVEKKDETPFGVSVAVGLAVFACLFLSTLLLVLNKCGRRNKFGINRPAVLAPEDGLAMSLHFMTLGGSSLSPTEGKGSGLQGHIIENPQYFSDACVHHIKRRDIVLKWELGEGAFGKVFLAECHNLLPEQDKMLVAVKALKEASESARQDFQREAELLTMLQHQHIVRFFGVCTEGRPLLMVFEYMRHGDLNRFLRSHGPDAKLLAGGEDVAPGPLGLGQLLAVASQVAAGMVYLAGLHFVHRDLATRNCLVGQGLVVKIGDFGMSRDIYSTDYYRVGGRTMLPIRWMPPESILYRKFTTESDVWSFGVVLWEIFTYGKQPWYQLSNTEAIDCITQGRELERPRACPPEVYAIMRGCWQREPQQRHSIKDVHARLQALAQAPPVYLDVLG
SMILES,NTRK1 mRNA expression in esophageal biopsies [1],NGF-mediated increase in EGR1 mRNA (NTRK1; EGR1 mRNA),NGF-mediated increase in EGR3 mRNA (NTRK1; EGR3 mRNA)
CCC(=O)O[C@]1(C(=O)SCF)[C@H](C)C[C@H]2[C@@H]3C[C@H](F)C4=CC(=O)C=C[C@]4(C)[C@@]3(F)[C@@H](O)C[C@@]21C [fluticasone propionate],normalized levels,,
C[C@@H](Oc1cc(-c2cnn(C3CCNCC3)c2)cnc1N)c1c(Cl)ccc(F)c1Cl [crizotinib],,dramatically reduced,dramatically reduced
